Reference: PubChem BioAssay (NCI)
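Cultured in 96-well plates, cells were exposed to test compound for 48 hours across five concentrations. GI50 marks 50% less growth. TGI denotes the concentration required for complete inhibition of growth.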

Legend:
Assay in all cases: DTP human tumour cell line panel, 48 h
A549 NSCLC = tested on: A549 NSCLC
BT-549 breast = tested on: BT-549 breast
EKVX NSCLC = tested on: EKVX NSCLC
HCC-2998 colon = tested on: HCC-2998 colon
HCT-15 colon = tested on: HCT-15 colon
HL-60(TB) leukemia = tested on: HL-60(TB) leukemia
HOP-92 NSCLC = tested on: HOP-92 NSCLC
HT29 colon = tested on: HT29 colon
IGROV1 ovarian = tested on: IGROV1 ovarian
K-562 leukemia = tested on: K-562 leukemia
M14 melanoma = tested on: M14 melanoma
MCF7 breast = tested on: MCF7 breast
MDA-MB-435 = tested on: MDA-MB-435
MOLT-4 leukemia = tested on: MOLT-4 leukemia
NCI-H226 lung = tested on: NCI-H226 lung
NCI-H23 lung = tested on: NCI-H23 lung
NCI-H460 lung = tested on: NCI-H460 lung
OVCAR-3 ovarian = tested on: OVCAR-3 ovarian
OVCAR-4 ovarian = tested on: OVCAR-4 ovarian
OVCAR-5 ovarian = tested on: OVCAR-5 ovarian
PC-3 prostate = tested on: PC-3 prostate
RPMI-8226 leukemia = tested on: RPMI-8226 leukemia
RXF 393 renal = tested on: RXF 393 renal
SF-539 CNS = tested on: SF-539 CNS
SK-MEL-2 melanoma = tested on: SK-MEL-2 melanoma
SK-MEL-28 melanoma = tested on: SK-MEL-28 melanoma
SK-MEL-5 melanoma = tested on: SK-MEL-5 melanoma
SK-OV-3 ovarian = tested on: SK-OV-3 ovarian
SNB-19 CNS = tested on: SNB-19 CNS
SR leukemia = tested on: SR leukemia
SW-620 colon = tested on: SW-620 colon
TK-10 renal = tested on: TK-10 renal
U251 CNS = tested on: U251 CNS
UACC-257 melanoma = tested on: UACC-257 melanoma
UACC-62 melanoma = tested on: UACC-62 melanoma
UO-31 renal = tested on: UO-31 renal
786-0 renal = tested on: 786-0 renal
A498 renal = tested on: A498 renal
ACHN renal = tested on: ACHN renal
CAKI-1 renal = tested on: CAKI-1 renal
CCRF-CEM leukemia = tested on: CCRF-CEM leukemia
COLO 205 colon = tested on: COLO 205 colon
DU-145 prostate = tested on: DU-145 prostate
HCT-116 colon = tested on: HCT-116 colon
HOP-62 NSCLC = tested on: HOP-62 NSCLC
KM12 colon = tested on: KM12 colon
LOX IMVI melanoma = tested on: LOX IMVI melanoma
MALME-3M melanoma = tested on: MALME-3M melanoma
MDA-MB-231 breast = tested on: MDA-MB-231 breast
NCI-H522 lung = tested on: NCI-H522 lung
NCI/ADR-RES ovarian = tested on: NCI/ADR-RES ovarian
OVCAR-8 ovarian = tested on: OVCAR-8 ovarian
SF-268 CNS = tested on: SF-268 CNS
SF-295 CNS = tested on: SF-295 CNS
SN12C renal = tested on: SN12C renal
SNB-75 CNS = tested on: SNB-75 CNS
T-47D breast = tested on: T-47D breast

Compound `CSc1n[nH]c2c1c(C)nn2-c1ccccc1` has a TGI (A549 NSCLC) greater than 100 µM, a TGI (BT-549 breast) greater than 100 µM and a TGI (EKVX NSCLC) greater than 100 µM. For the same compound, the TGI (HCC-2998 colon) was greater than 100 µM, the TGI (HCT-15 colon) was greater than 100 µM and the TGI (HL-60(TB) leukemia) was greater than 100 µM. It also gave a TGI (HOP-92 NSCLC) greater than 100 µM, a TGI (HT29 colon) greater than 100 µM and a TGI (IGROV1 ovarian) greater than 100 µM. The TGI (K-562 leukemia) was greater than 100 µM, the TGI (M14 melanoma) was greater than 100 µM and the TGI (MCF7 breast) was greater than 100 µM. The TGI (MDA-MB-435) was greater than 100 µM, the TGI (MOLT-4 leukemia) was greater than 100 µM and the TGI (NCI-H226 lung) was greater than 100 µM. The TGI (NCI-H23 lung) was greater than 100 µM, the TGI (NCI-H460 lung) was greater than 100 µM and the TGI (OVCAR-3 ovarian) was greater than 100 µM. For the same compound, the TGI (OVCAR-4 ovarian) was greater than 100 µM, the TGI (OVCAR-5 ovarian) was greater than 100 µM and the TGI (PC-3 prostate) was greater than 100 µM. The TGI (RPMI-8226 leukemia) was greater than 100 µM, the TGI (RXF 393 renal) was greater than 100 µM and the TGI (SF-539 CNS) was greater than 100 µM. For the same compound, the TGI (SK-MEL-2 melanoma) was greater than 100 µM, the TGI (SK-MEL-28 melanoma) was greater than 100 µM and the TGI (SK-MEL-5 melanoma) was greater than 100 µM. For the same compound, the TGI (SK-OV-3 ovarian) was greater than 100 µM, the TGI (SNB-19 CNS) was greater than 100 µM and the TGI (SR leukemia) was greater than 100 µM. The TGI (SW-620 colon) was greater than 100 µM, the TGI (TK-10 renal) was greater than 100 µM and the TGI (U251 CNS) was greater than 100 µM. It also gave a TGI (UACC-257 melanoma) greater than 100 µM, a TGI (UACC-62 melanoma) greater than 100 µM and a TGI (UO-31 renal) greater than 100 µM.

Work on `O=C1C2=C(C(=O)c3c(O)ccc(O)c31)N(c1cccnc1)Cc1ccccc1O2` yielded a GI50 (786-0 renal) of 0.211 µM, a TGI (786-0 renal) of 0.605 µM and a GI50 (A498 renal) of 2.37 µM. It also gave a TGI (A498 renal) of 5.32 µM, a GI50 (A549 NSCLC) of 2.85 µM and a TGI (A549 NSCLC) of 19.9 µM. The GI50 (ACHN renal) was 0.0612 µM, the TGI (ACHN renal) was 0.195 µM and the GI50 (BT-549 breast) was 0.392 µM. For the same compound, the TGI (BT-549 breast) was 1.24 µM, the GI50 (CAKI-1 renal) was 0.103 µM and the TGI (CAKI-1 renal) was 0.421 µM. The GI50 (CCRF-CEM leukemia) was 0.0878 µM, the TGI (CCRF-CEM leukemia) was 0.513 µM and the GI50 (COLO 205 colon) was 0.102 µM. The TGI (COLO 205 colon) was 0.333 µM, the GI50 (DU-145 prostate) was 0.351 µM and the TGI (DU-145 prostate) was 1.17 µM. For the same compound, the GI50 (EKVX NSCLC) was 1.18 µM, the TGI (EKVX NSCLC) was 5.74 µM and the GI50 (HCC-2998 colon) was 1.52 µM. For the same compound, the TGI (HCC-2998 colon) was 3.23 µM, the GI50 (HCT-116 colon) was 0.0923 µM and the TGI (HCT-116 colon) was 0.324 µM. For the same compound, the GI50 (HCT-15 colon) was 0.167 µM, the TGI (HCT-15 colon) was 0.648 µM and the GI50 (HL-60(TB) leukemia) was 0.154 µM. The TGI (HL-60(TB) leukemia) was 0.484 µM, the GI50 (HOP-62 NSCLC) was 2.29 µM and the TGI (HOP-62 NSCLC) was 6.64 µM. For the same compound, the GI50 (HOP-92 NSCLC) was 0.207 µM, the TGI (HOP-92 NSCLC) was 0.459 µM and the GI50 (HT29 colon) was 0.313 µM. For the same compound, the TGI (HT29 colon) was 4.23 µM, the GI50 (IGROV1 ovarian) was 0.289 µM and the TGI (IGROV1 ovarian) was 0.96 µM. The GI50 (K-562 leukemia) was 0.0752 µM, the GI50 (KM12 colon) was 1.33 µM and the TGI (KM12 colon) was 5.23 µM. For the same compound, the GI50 (LOX IMVI melanoma) was 0.127 µM, the TGI (LOX IMVI melanoma) was 0.56 µM and the GI50 (M14 melanoma) was 0.26 µM. It also gave a TGI (M14 melanoma) of 0.771 µM, a GI50 (MALME-3M melanoma) of 0.164 µM and a TGI (MALME-3M melanoma) of 0.385 µM. The GI50 (MCF7 breast) was 0.191 µM, the TGI (MCF7 breast) was 0.912 µM and the GI50 (MDA-MB-231 breast) was 0.265 µM. The TGI (MDA-MB-231 breast) was 0.876 µM, the GI50 (MDA-MB-435) was 0.398 µM and the TGI (MDA-MB-435) was 1.15 µM. It also gave a GI50 (MOLT-4 leukemia) of 0.21 µM, a GI50 (NCI-H226 lung) of 0.703 µM and a TGI (NCI-H226 lung) of 1.82 µM. For the same compound, the GI50 (NCI-H460 lung) was 2.6 µM, the TGI (NCI-H460 lung) was 6.78 µM and the GI50 (NCI-H522 lung) was 0.0288 µM. It also gave a TGI (NCI-H522 lung) of 0.112 µM, a GI50 (NCI/ADR-RES ovarian) of 0.861 µM and a TGI (NCI/ADR-RES ovarian) greater than 25.9 µM. For the same compound, the GI50 (OVCAR-5 ovarian) was 0.564 µM, the TGI (OVCAR-5 ovarian) was 1.8 µM and the GI50 (OVCAR-8 ovarian) was 0.552 µM. It also gave a TGI (OVCAR-8 ovarian) of 3.43 µM, a GI50 (PC-3 prostate) of 0.653 µM and a TGI (PC-3 prostate) of 2.03 µM. For the same compound, the GI50 (RPMI-8226 leukemia) was 0.386 µM, the TGI (RPMI-8226 leukemia) was 2.03 µM and the GI50 (RXF 393 renal) was 0.182 µM. It also gave a TGI (RXF 393 renal) of 0.367 µM, a GI50 (SF-268 CNS) of 0.65 µM and a TGI (SF-268 CNS) of 2 µM. For the same compound, the GI50 (SF-295 CNS) was 2.43 µM, the TGI (SF-295 CNS) was 8.4 µM and the GI50 (SF-539 CNS) was 0.378 µM. For the same compound, the TGI (SF-539 CNS) was 1.36 µM, the GI50 (SK-MEL-2 melanoma) was 1.54 µM and the TGI (SK-MEL-2 melanoma) was 4.78 µM. It also gave a GI50 (SK-MEL-28 melanoma) of 0.266 µM, a TGI (SK-MEL-28 melanoma) of 0.644 µM and a GI50 (SK-MEL-5 melanoma) of 1.33 µM. It also gave a TGI (SK-MEL-5 melanoma) of 2.99 µM, a GI50 (SK-OV-3 ovarian) of 3.52 µM and a TGI (SK-OV-3 ovarian) of 12.8 µM. For the same compound, the GI50 (SN12C renal) was 0.312 µM, the TGI (SN12C renal) was 1.02 µM and the GI50 (SNB-19 CNS) was 2.6 µM. It also gave a TGI (SNB-19 CNS) of 10.7 µM, a GI50 (SNB-75 CNS) of 0.615 µM and a TGI (SNB-75 CNS) of 2.15 µM. The GI50 (SW-620 colon) was 0.145 µM, the TGI (SW-620 colon) was 0.357 µM and the GI50 (T-47D breast) was 0.221 µM. It also gave a TGI (T-47D breast) of 0.635 µM, a GI50 (TK-10 renal) of 0.27 µM and a TGI (TK-10 renal) of 0.983 µM. It also gave a GI50 (U251 CNS) of 0.651 µM, a TGI (U251 CNS) of 2.76 µM and a GI50 (UACC-257 melanoma) of 0.399 µM. It also gave a TGI (UACC-257 melanoma) of 1.39 µM, a GI50 (UACC-62 melanoma) of 0.183 µM and a TGI (UACC-62 melanoma) of 0.396 µM. It also gave a GI50 (UO-31 renal) of 0.182 µM and a TGI (UO-31 renal) of 0.398 µM.
